# How the values were obtained:
# NUCB2 protein [1] = target: T1, NUCB2 protein (Mus musculus, UniProt P81117); test: In vitro binding experiment (streptavidin-agarose pull-down, Western blot) of biotin-linked small molecules with full-length NUCB2; conditions: mouse full-length NUCB2 expressed in E. coli
# T1 construct: Immediately the mouse full-length NUCB2 protein expressed in E. coli was purified; His tag (inferred from pET-28A vector, Ni-NTA purification and His antibody); made in house; host or cells: E. coli BL21-CodonPlus (DE3)
# T1 sequence (P81117 25-420): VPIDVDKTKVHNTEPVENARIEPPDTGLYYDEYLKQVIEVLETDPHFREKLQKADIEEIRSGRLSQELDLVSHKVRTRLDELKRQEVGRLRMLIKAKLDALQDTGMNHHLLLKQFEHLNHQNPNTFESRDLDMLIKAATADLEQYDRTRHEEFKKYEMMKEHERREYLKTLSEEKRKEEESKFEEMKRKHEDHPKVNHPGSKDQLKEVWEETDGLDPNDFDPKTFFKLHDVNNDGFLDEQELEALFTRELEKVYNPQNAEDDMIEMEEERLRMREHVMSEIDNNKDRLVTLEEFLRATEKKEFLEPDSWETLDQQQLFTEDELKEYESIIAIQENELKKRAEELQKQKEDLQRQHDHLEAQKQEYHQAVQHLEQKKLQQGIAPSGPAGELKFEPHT
# Procedure: (§1) When doing the combining experiments, (1) pre-treating Streptavidin-Agarose, washing Streptavidin-Agarose Beads with IP buffer, and spinning it on the rotor for 10 minutes. (2) Re-binding small molecules HLY179 (20 μM) and Streptavidin-Agarose Beads, spinning it in a refrigeration house at 4° C. for 1-2 hours. (3) When the previous step was performed for about 1 hour, the protein was pre-cleared at the same time, and the protein and the washed Streptavidin-Agarose were rotated in a refrigeration house at 4° C. for 30 minutes. (4) the Streptavidin-Agarose Beads binded with HLY179 was centrifuged, the supernatant was removed, washed again with 600 μL of IP buffer (rotated at 4° C. for 3 minutes), centrifuged, and the supernatant was removed carefully. (5) the pre-cleard protein was added and rotated in a refrigeration house at 4° C. for 2 hours. Washd twice with IP buffer 800 μL, 2 minutes each time (all rotated in a refrigeration house at 4° C.). After the last wash, the supernatant was removed, 40 μL of 2*loading was added and cooked for 10 minutes, stored at −20° C. When doing competitive binding experiments, in the third step while pre-treating the protein adding different small molecule compounds, the final concentration was 100 μM, and the rest was the same. Western Blot: Preparing the appropriate concentration of SDS-PAGE gel, adding protein sample for electrophoretic separation. […]
# NUCB2 protein [2] = target: T1, NUCB2 protein; test: Competitive binding experiment: small molecules compete with Bio78 (HLY179) for NUCB2; conditions: competitor final concentration 100 μM; HLY179 20 μM
# Procedure: as §1
# Wnt signal = test: TOPFlash reporter gene activity test in HEK293T cells; format: cell-based
# Procedure: The HEK293T cells used for the measurement of reporter gene activity were plated at 20 hours before transfection and cultured to about 50% coverage for the transfection. The transfection method was as described above. For HEK293T cells, transfection was performed according to 20 ng TOPFlash, 20 ng GFP and 460 ng lacZ per well, and Wnt3a or Nesfatin-1/NUCB2 protein was added at 18 hours after transfection to stimulate for 6-8 hours, and the cell was lysed with Boehringer Mannheim Luciferase Assay Kit (200 μl/well) for 15 minutes, 50 μl lysate was added in the fluorometer BIO-TEK Synergy2 (Gene Company Limited) to measure the GFP fluorescence intensity in the cell lysate as an internal standard, and then 20 μl luciferase substrate (Roche) was added for the reaction, the luciferase activity was detected in the chemiluminescence channel, and finally the GFP reading was used as an internal standard for homogenization.
# We focus on the three small molecules HLY72, HLY103, and HSS49A (FIG. 3a). […] So that the first biochemical experiment design is: whether these three small molecules can compete for the binding of HLY179 to NUCB2 protein.
# normal mice = test: Food intake of mice after single intraperitoneal injection; format: in vivo, mouse; conditions: 20 mg/kg intraperitoneal; 0-3 h, 0-6 h, 0-12 h, 0-24 h
# Procedure: Mice were intraperitoneally injected with DMSO or HLY72 (dissolved in DMSO) 25 μL within 2 hours before turning off the lamp. During the intragastric experiment, the high concentration of HLY72 dissolved in DMSO was dissolved in 10% cyclodextrin, and the total volume was 100 μL Volume by gavage, so that the final concentration of DMSO was less than 10%. The diet was weighed at the 3rd hour, the 6th hour, the 12th hour, and the 24th hour respectively after the lights out. The corresponding mouse body weight was also weighed at the same time before the daily administration. The fat content of mice was measured with the magnetic resonance fat content measuring instrument of the animal platform in SIBCB.
# The next question we are very concerned about is whether HLY78 has similar functions to NUCB2 protein in mice. Up to now, the most classic function reported for NUCB2 protein is to reduce the food intake of mice at night. Therefore, the experiment was designed: 20 mg/kg of HLY78 was injected intraperitoneally within two hours before turning off the lights at night, and then the food intake of the mice was measured at different time points (0-3 h, 0-6 h, 0-12 h, 0-24 h). […] During the three days of the adaptive injection period before HLY78 injection, both groups of mice were injected with DMSO. On the day of injection of HLY78 and the two days before the injection of DMSO, the body weight of the two groups of mice is also the same (FIG. 2b).
# Next, two small molecules HLY72 and HLY103 were selected to perform functional experiments on the food intake in mice.
# db/db mice and DIO mice = test: Long-term administration, weight loss in db/db mice and DIO mice; format: in vivo, mouse
structure (smiles),measurement,setting,value
CCc1cccc2c1N(C)Cc1cc3c(cc1-2)OCO3 [HLY78],binding of purified NUCB2 protein to small molecule,NUCB2 protein [1],specifically binds
same,compete with Bio78 for binding to NUCB2,NUCB2 protein [2],can compete
same,activity of Wnt signal activation,Wnt signal,can synergistically activate
same,food intake of mice,normal mice,significantly reduce
same,weight loss effect,db/db mice and DIO mice,good weight loss effect

# Reference: patent US20200385396A1, “Compond for treatment or prevention of obesity or diseases related to obesity, and application thereof” (SHANGHAI INSTITUTES FOR BIOLOGICAL SCIENCES, CHINESE …, priority 2017, published 2020)
